According to publication PMC10663540, “Structure-based discovery of dual pathway inhibitors for SARS-CoV-2 entry” (Nature Communications, 2023):
“And” between values parts separate entries of the source, which are not always exact repeats. Equal values may be shown once. Read-outs that look alike come from different tables or passages of the source.

How the values were obtained:
in vitro = conditions: human
human CTSL = target: T1, human CTSL (Homo sapiens, UniProt P07711); assay: FRET enzymatic inhibition assay of CTSL (IC50 measurement); type: biochemical; conditions: rep1-rep4
T1 construct: made in house

Calu-3 cells = conditions: rep1-rep3

T1 sequence (P07711 114-333): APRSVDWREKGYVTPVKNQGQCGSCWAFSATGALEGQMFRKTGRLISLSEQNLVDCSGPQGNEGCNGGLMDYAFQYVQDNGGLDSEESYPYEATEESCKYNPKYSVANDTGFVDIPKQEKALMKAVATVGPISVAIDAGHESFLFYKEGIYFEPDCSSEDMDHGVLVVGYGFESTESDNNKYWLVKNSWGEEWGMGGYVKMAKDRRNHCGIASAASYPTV

CN1CCN(C(=O)N[C@@H](Cc2ccccc2)C(=O)N[C@H](/C=C/S(=O)(=O)c2ccccc2)CCc2ccccc2)CC1 [K777]
CC50 (in vitro): 110 µM | Inhibition: CTSL (human CTSL; 0.0762939 nM, 7.62939e-05 µM): 1.13% and 5.78% and 3.59% and 2.15% | inhibition at 0.000152588 µM (human CTSL; 0.152588 nM): 5.42% | Inhibition: CTSL (human CTSL; 0.152588 nM, 0.000152588 µM): 10.09% and 6.36% and 10.80% | inhibition at 0.000610352 µM (human CTSL; 0.610352 nM): 9.96% | Inhibition: CTSL (human CTSL; 0.610352 nM, 0.000610352 µM): 11.08% and 11.88% and 12.12% | inhibition at 0.0012207 µM (human CTSL; 1.2207 nM): 14.1% | Inhibition: CTSL (human CTSL; 1.2207 nM, 0.0012207 µM): 15.17% and 15.67% and 15.23% | inhibition at 0.00244141 µM (human CTSL; 2.44141 nM): 27.1% | Inhibition: CTSL (human CTSL; 2.44141 nM, 0.00244141 µM): 29.89% and 27.84% and 28.16% | inhibition at 0.00488281 µM (human CTSL; 4.88281 nM): 46.7% | Inhibition: CTSL (human CTSL; 4.88281 nM, 0.00488281 µM): 49.46% and 47.59% and 48.29% | inhibition at 0.00976562 µM (human CTSL; 9.76562 nM): 73.6% | Inhibition: CTSL (human CTSL; 9.76562 nM, 0.00976562 µM): 74.62% and 72.91% and 72.68% | inhibition at 0.0195312 µM (human CTSL; 19.5312 nM): 93.2% | Inhibition: CTSL (human CTSL; 19.5312 nM, 0.0195312 µM): 93.40% and 92.49% and 94.07% | inhibition at 0.0390625 µM (human CTSL; 39.0625 nM): 99.5% | Inhibition: CTSL (human CTSL; 39.0625 nM, 0.0390625 µM): 98.76% and 99.78% and 99.61% | inhibition at 0.078125 µM (human CTSL; 78.125 nM): 100% | Inhibition: CTSL (human CTSL; 78.125 nM, 0.078125 µM): 99.93% and 100.35% and 99.32% | inhibition at 0.15625 µM (human CTSL; 156.25 nM): 100% | Inhibition: CTSL (human CTSL; 156.25 nM, 0.15625 µM): 100.75% and 100.78% | inhibition at 0.3125 µM (human CTSL; 312.5 nM): 100% | Inhibition: CTSL (human CTSL; 312.5 nM, 0.3125 µM): 100.44% and 100.24% and 99.50% | inhibition at 0.625 µM (human CTSL; 625 nM): 100% | Inhibition: CTSL (human CTSL; 625 nM, 0.625 µM): 100.05% and 99.89% | inhibition at 1.25 µM (human CTSL; 1250 nM): 100% | Inhibition: CTSL (human CTSL; 1250 nM, 1.25 µM): 100.44% and 100.07% and 99.92% | inhibition at 2.5 µM (human CTSL; 2500 nM): 100% | Inhibition: CTSL (human CTSL; 2500 nM, 2.5 µM): 100.03% and 100.38% and 100.68% | inhibition at 5 µM (human CTSL; 5000 nM): 100% | Inhibition: CTSL (human CTSL; 5000 nM, 5 µM): 100.04% and 100.18% and 100.13% | inhibition at 10 µM (human CTSL; 10000 nM): 100% | Inhibition: CTSL (human CTSL; 10000 nM, 10 µM): 100.22% and 100.09% and 99.98% | Cytotoxicity (Calu-3 cells; 0.017 μM): 8.99% and 10.05% and 10.29% | Cytotoxicity (Calu-3 cells; 0.05 μM): 20.39% and 20.63% and 20.94% | Cytotoxicity (Calu-3 cells; 0.15 μM): 17.33% and 17.61% and 17.94% | Cytotoxicity (Calu-3 cells; 0.46 μM): 15.43% and 15.73% and 16.02% | Cytotoxicity (Calu-3 cells; 4.1 μM): 16.54% and 16.77% and 16.98% | Cytotoxicity (Calu-3 cells; 12.3 μM): 18.57% and 18.78% and 19.05% | Cytotoxicity (Calu-3 cells; 37 μM): 15.46% and 15.63% and 15.88% | Cytotoxicity (Calu-3 cells; 111.1 μM): 60.74% and 60.66% and 60.71% | Cytotoxicity (Calu-3 cells; 333.3 μM): 97.79% and 97.81% | Cytotoxicity (Calu-3 cells; 1000 μM): 99.56%

N=C(N)c1ccc2cc(OC(=O)c3ccc(N=C(N)N)cc3)ccc2c1 [Nafamostat]
CC50 (in vitro): 452 µM
